Values of other authors in patent US10563162B2, “Microbial electro-photosynthesis” (Arizona Board of Regents on behalf of Arizona State …, priority 2014, dated 2020).

Details: listed property of redox mediator / natural electron acceptor; no method given

Molecule	midpoint potential (E^0,) [mV]	number of electrons transported (# e−)
O=C1C=CC(=O)C=C1 [Benzoquinone]	280	2
CC1=C(C)C(=O)C(C)=C(C)C1=O [Duroquinone]	5	2

Further lines, results first:

midpoint potential (E^0,) [mV]	number of electrons transported (# e−)	Molecule
80	2	CC(C)=CCC/C(C)=C/CC/C(C)=C/CC/C(C)=C/CC/C(C)=C/CC/C(C)=C/CC/C(C)=C/CC/C(C)=C/CC/C(C)=C/CC1=CC(=O)C(C)=C(C)C1=O [Plastoquinone]
64	2	Thionine
11	2	CN(C)c1ccc2nc3ccc(=[N+](C)C)cc-3sc2c1 [Methylene Blue]
